Experimental data published in patent US3980794A, “Method for promoting growth of poultry with 3-(5-nitro-2-imidazolyl)pyrazoles” (Eli Lilly and Company, priority 1975, dated 1976).
Values after ≈ are worked out from the molar mass of the structure shown. Like-named read-outs stand apart in the source and are kept apart here.

Tests used:
Type in all cases: cell-based
[1] = system: Fusobacterium symbiosum 1470; assay: Susceptibility of anaerobic bacteria, agar dilution; conditions: read-out: 24 Hr. Minimum Inhibitory Concentration
[2] = system: Bacteroides fragilis sp. fragilis 1877; assay: as above; conditions: 24 h, read-out: 24 Hr. Minimum Inhibitory Concentration
[3] = system: Bacteroides fragilis sp. thetaiotaomicron 1438; assay: as above; conditions: 24 h, read-out: 24 Hr. Minimum Inhibitory Concentration
[4] = system: Bacteroides fragilis sp. vulgatus 1211; assay: as above; conditions: 24 h, read-out: 24 Hr. Minimum Inhibitory Concentration
[5] = system: Peptostreptococcus intermedius 1264; assay: as above; conditions: 24 h; Peptostreptococcus intermedius 1264; read-out: 24 Hr. Minimum Inhibitory Concentration
[6] = system: Propionibacterium acnes 79; assay: as above; conditions: read-out: 24 Hr. Minimum Inhibitory Concentration
[7] = system: Bacteroides fragilis sp. fragilis 1936B; assay: as above; conditions: 24 h, read-out: 24 Hr. Minimum Inhibitory Concentration
[8] = system: Clostridium innocuum 1373; assay: as above; conditions: read-out: 24 Hr. Minimum Inhibitory Concentration
[9] = system: Clostridium septicum bovine; assay: as above; conditions: 24 h, read-out: 24 Hr. Minimum Inhibitory Concentration
Experimental: (§1) The susceptibility of anaerobic bacteria, both gram positive and gram negative, to a representative number of the novel compounds of this application was determined using the agar dilution method. The bacteria used were isolated from patients hospitalized at the Indiana University Medical Center. The isolates were identified in the anaerobe laboratory of the Medical Center by the criteria established by Dowell et al., Laboratory Methods in Anaerobic Bacteriology. Public Health Serv. Publ. No. 1803 (1968) [Center for Disease Control, Atlanta, Ga.]; and by Smith et al., The Pathogenic Anaerobic Bacteria, pages 96-136 (1968) [Charles C. Thomas, Publisher, Springfield, Ill.]. All the organisms were maintained in chopped meat glucose medium (Scott Labs) at room temperature.
(§2) The method used for the agar dilution tests was based on the studies of Sutter et al., Antimicrob. Ag. Chemother. 3, 188-193 (1973). The strains of anaerobic bacteria were grown in 16 × 120 mm. tubes for 16 to 18 hours in Thioglycolate medium without indicator--135C (Becton, Dickinson and Co.), to which was added 5 mcg. of hemin per milliliter prior to autoclaving, plus 1 mg. of sodium bicarbonate and 0.1 mcg. of filter-sterilized menadione per milliliter after autoclaving. The growth tubes for the bacteria Veillonella alcalescens were additionally supplemented with 5 mg. of sodium lactate per milliliter. The strains were adjusted to the turbidity of the No. 1 McFarland standard in Thioglycolate medium without indicator--135C containing an additional 0.13 percent Bacto-agar (Difco). Each strain was then applied to the surface of the petri plate (100 mm. × 15 mm.) by means of a replicator.
(§3) For the agar dilution studies, two-fold dilutions of the test compounds were prepared in deionized water to which was then added laked sheep blood and filter-sterilized menadione so the concentrations after the agar dilution were 5 percent and 10 mcg./ml. respectively. An equal volume of double strength Brucella agar (Becton, Dickinson and Co.) was mixed with each dilution in a water bath held at 50°C. and then poured onto the petri plates.
(§4) All of the procedures were done inside a plastic glove box, except for the incubation of the growth tubes and the pouring of the plates. After the plates hardened, they were put inside the glove box for a minimum of two hours before they were inoculated. Generally, the glove box procedures of Aranki et al., Applied Microbiology 17, 568-576 (1969), were followed, but the following modifications were used. Dry materials were introduced into the glove box by evacuating the lock to 28 inches of mercury and filling once with nitrogen gas, followed by evacuating in the same manner and filling with an 80 percent nitrogen plus 10 percent CO2 plus 10 percent hydrogen gas mixture. Liquid media and agar plates were introduced into the glove box by evacuating the lock to 10 inches of mercury and filling with gas four times. The nitrogen gas was used to fill the lock for the first two cycles of evacuation, with the gas mixture described above used for the final two fillings.
(§5) All the plates were incubated at 37°C. in Gas Pak jars (Becton, Dickinson and Co.) containing palladium-coated alumina catalysts (reactivated after each use). The results of the agar dilution tests were read after about 24 hours of incubation. The minimum inhibitory concentration (MIC) was recorded as the lowest concentration of test compound at which there was no growth.
(§6) The results of these in vitro tests are recorded in Charts 11 and 12 which follow. The test compounds are identified in the same manner as in the previous experiments. The antibiotics cephalothin and erythromycin were also run simultaneously with the novel compounds of this application, for comparison purposes, and the results are included in Charts 11 and 12 below.

[10] = system: Clostridium septicum 1128; assay: as above; conditions: 24 h, read-out: 24 Hr. Minimum Inhibitory Concentration
Experimental: as §1, §2, §3, §4, §5, §6

[11] = system: Bacteroides fragilis sp. vulgatus 1563; assay: as above; conditions: 24 h, read-out: 24 Hr. Minimum Inhibitory Concentration
[12] = system: Veillonella alcalescens 1; assay: as above; conditions: read-out: 24 Hr. Minimum Inhibitory Concentration
[13] = system: Eubacterium aerofaciens 1235; assay: as above; conditions: read-out: 24 Hr. Minimum Inhibitory Concentration
[14] = system: Peptococcus anaerobius 1428; assay: as above; conditions: 24 h, read-out: 24 Hr. Minimum Inhibitory Concentration
Actinomyces bovis 13684 = assay: as above; conditions: read-out: 24 Hr. Minimum Inhibitory Concentration
[15] = system: Clostridium perfringens 81; assay: microbe, parasite or virus in culture; conditions: Clostridium perfringens, 81, 24 h, read-out: 24 Hr. Minimum Inhibitory Concentration
[16] = system: Propionibacterium acnes 44; assay: Susceptibility of anaerobic bacteria, agar dilution; conditions: Cutibacterium acnes, 24 h; Propionibacterium acnes 44; read-out: 24 Hr. Minimum Inhibitory Concentration
[17] = system: Fusobacterium necrophorum 13859; assay: as above; conditions: read-out: 24 Hr. Minimum Inhibitory Concentration
Clostridium ramosum 1313 = assay: as above; conditions: read-out: 24 Hr. Minimum Inhibitory Concentration
[18] = Bacteroides fragilis sp. fragilis 1936B
[19] = [Clostridium] innocuum, 1373, 24 h
[20] = Collinsella aerofaciens, 1235, 24 h
[21] = Fusobacterium necrophorum, 13859, 24 h
[22] = Thomasclavelia ramosa, 24 h, Clostridium ramosum 1313
[23] = Thomasclavelia ramosa, 1313, 24 h

SMILES	MIC ([1]; Fusobacterium, 1470, 24 h)	MIC ([2]; Bacteroides fragilis)	MIC ([3]; Bacteroides fragilis)	MIC ([4]; Bacteroides fragilis)	MIC [5]	MIC ([6]; Cutibacterium acnes, 79, 24 h)	MIC [7, 18]	MIC [8, 19]	MIC [9]	MIC [10]	MIC ([11]; Bacteroides fragilis)	MIC ([12]; Veillonella parvula, 1, 24 h)	MIC [13, 20]	MIC ([14]; Peptococcus anaerobius 1428)	MIC (Actinomyces bovis 13684; 24 h, Actinomyces bovis 13684)	MIC [15]	MIC [16]	MIC [17, 21]	MIC (Actinomyces bovis 13684; Actinomyces bovis, 13684, 24 h)	MIC (Clostridium ramosum 1313; [23])	also measured
Cn1c([N+](=O)[O-])cnc1-c1nn(CCCl)c(N)c1C#N [Compound 15, 5-Amino-1-(2-chloroethyl)-3-(1-methyl-5-nitro-2-imidazolyl)pyrazole-4-carbonitrile]	< 0.125 mg/L	< 0.125 mg/L	< 0.125 mg/L	< 0.125 mg/L	8 mg/L (≈ 27.1 µM)	< 0.125 mg/L	0.5 mg/L (≈ 1.69 µM)	< 0.125 mg/L	< 0.125 mg/L	0.25 mg/L (≈ 0.845 µM)	< 0.125 mg/L	< 0.125 mg/L	< 0.125 mg/L	1 mg/L (≈ 3.38 µM)	1 mg/L (≈ 3.38 µM)	< 0.125 mg/L	> 32 mg/L	< 0.125 mg/L			MIC (Clostridium ramosum 1313; [22]): 0.5 mg/L (≈ 1.69 µM)
CCn1nc(-c2ncc([N+](=O)[O-])n2C)c(C#N)c1N [Compound 16, 5-Amino-1-ethyl-3-(1-methyl-5-nitro-2-imidazolyl)pyrazole-4-carbonitrile]	< 0.125 mg/L	< 0.125 mg/L	< 0.125 mg/L	< 0.125 mg/L	2 mg/L (≈ 7.66 µM)	< 0.125 mg/L	0.25 mg/L (≈ 0.957 µM)	< 0.125 mg/L	< 0.125 mg/L	< 0.125 mg/L	< 0.125 mg/L	< 0.125 mg/L	< 0.125 mg/L	1 mg/L (≈ 3.83 µM)		< 0.125 mg/L	> 32 mg/L	< 0.125 mg/L	< 0.125 mg/L	< 0.125 mg/L	
CN(C)S(=O)(=O)Nc1c(C#N)c(-c2ncc([N+](=O)[O-])n2C)nn1C [Compound 20]					32 mg/L (≈ 90.3 µM)		2 mg/L (≈ 5.64 µM)		8 mg/L (≈ 22.6 µM)	8 mg/L (≈ 22.6 µM)				1 mg/L (≈ 2.82 µM)	2 mg/L (≈ 5.64 µM)	8 mg/L (≈ 22.6 µM)	> 32 mg/L				MIC ([1]; 24 h, Fusobacterium symbiosum 1470): 4 mg/L (≈ 11.3 µM); MIC ([2]; Bacteroides fragilis sp. fragilis 1877): 4 mg/L (≈ 11.3 µM); MIC ([3]; Bacteroides fragilis sp. thetaiotaomicron 1438): 4 mg/L (≈ 11.3 µM); MIC ([4]; Bacteroides fragilis sp. vulgatus 1211): 2 mg/L (≈ 5.64 µM); MIC ([6]; Cutibacterium acnes, 24 h, Propionibacterium acnes 79): 1 mg/L (≈ 2.82 µM); MIC ([8]; 24 h, Clostridium innocuum 1373): 16 mg/L (≈ 45.2 µM); MIC ([11]; Bacteroides fragilis sp. vulgatus 1563): 1 mg/L (≈ 2.82 µM); MIC ([12]; Veillonella parvula, 24 h, Veillonella alcalescens 1): 1 mg/L (≈ 2.82 µM); MIC ([13]; Collinsella aerofaciens, 24 h, Eubacterium aerofaciens 1235): 8 mg/L (≈ 22.6 µM); MIC ([17]; 24 h, Fusobacterium necrophorum 13859): 1 mg/L (≈ 2.82 µM); MIC (Clostridium ramosum 1313; [22]): 4 mg/L (≈ 11.3 µM)
CNNC=Nc1c(C#N)c(-c2ncc([N+](=O)[O-])n2C)nn1C [Compound 21, N-[4-Cyano-1-methyl-3-(1-methyl-5-nitroimidazol-2-yl)pyrazol-5-yl]formimidic acid, 2-methyl hydrazide]	< 0.125 mg/L	< 0.125 mg/L	< 0.125 mg/L	< 0.125 mg/L	0.5 mg/L (≈ 1.65 µM)	< 0.125 mg/L		< 0.125 mg/L	< 0.125 mg/L	< 0.125 mg/L	< 0.125 mg/L	< 0.125 mg/L	< 0.125 mg/L			< 0.125 mg/L	32 mg/L (≈ 106 µM)	< 0.125 mg/L	< 0.125 mg/L	< 0.125 mg/L	MIC ([7]; Bacteroides fragilis): < 0.125 mg/L; MIC [14]: < 0.125 mg/L
CCCn1nc(-c2ncc([N+](=O)[O-])n2C)c(C#N)c1N [Compound 22, 5-Amino-1-(n-propyl)-3-(1-methyl-5-nitro-2-imidazolyl)pyrazole-4-carbonitrile]	< 0.125 mg/L	< 0.125 mg/L	< 0.125 mg/L	< 0.125 mg/L	1 mg/L (≈ 3.63 µM)	< 0.125 mg/L		< 0.125 mg/L	< 0.125 mg/L	< 0.125 mg/L	< 0.125 mg/L	< 0.125 mg/L	< 0.125 mg/L			< 0.125 mg/L	> 32 mg/L	< 0.125 mg/L	< 0.125 mg/L	< 0.125 mg/L	MIC ([7]; Bacteroides fragilis): < 0.125 mg/L; MIC [14]: < 0.125 mg/L
